Data from article PMC10303900, “Discovery of a New Chalcone-Trimethoxycinnamide Hybrid with Antimitotic Effect: Design, Synthesis, and Structure—Activity Relationship Studies” (Pharmaceuticals, 2023).
Where two headings read alike, the source gives them in different places.

Assays:
HCT116 cells = test: Apoptosis detection via flow cytometry (Annexin V-FITC/PI); assay type: cell-based, human; conditions: HCT116, 48 h, vs untreated or DMSO
Experimental: Double labeling with annexin V-FITC and propidium iodide dyes was used to detect cells going through apoptotic events, using a flow cytometer in order to obtain insights into the mechanism by which compounds 6, 7, and 13 generate antiproliferative activity against colorectal carcinoma cells. For that, HCT116 cells were exposed to each compound for 48 h.
To evaluate apoptotic cell death, the “Annexin V-FITC Apoptosis Detection Kit” (eBioscience, Vienna, Austria) was used according to the manufacturer’s instructions. Briefly, 1.2 × 10^5 cells/well were seeded into 6-well plates, and 24 h later, cells were treated with compounds 6, 7, and 13. After 48 h, floating and adherent cells were collected, pelleted via centrifugation (1000 rpm, 5 min), and suspended in binding buffer. Annexin V-FITC was added and incubated for 10 min, protected from light. Cells were washed and resuspended in binding buffer, and 20 μg/mL of propidium iodide (PI) was added. Fluorescence was assessed using the BD Accuri™ C6 Plus flow cytometer (BD Biosciences, Qume Drive, San Jose, CA, USA), and the data were analyzed with the BD Accuri TM C6 Plus software (version 1.0.27.1, San Jose, CA, USA). At least 20,000 events per sample were collected.

p53–MDM2 interaction = biological target: T1, p53–MDM2 interaction (Homo sapiens, UniProt Q00987); test: Yeast targeted screening assay of p53–MDM2 interaction; conditions: 10 μM, yeast cell-based assay, data not shown
T1 construct: expressed in transfected cells; host or cells: Saccharomyces cerevisiae strain CG379
Experimental: However, since CM-M345 (1) has been previously reported as a p53-MDM2 inhibitor by our research group, the effect of 10 μM of compounds 6, 7, and 13 on the p53–MDM2 interaction was analyzed using yeast cell-based assays.
Saccharomyces cerevisiae (strain CG379) expressing human wt p53 alone and combined with human MDM2 were obtained in previous works. For the expression of human proteins (routinely grown in minimal selective medium), cells were diluted to 0.05 OD600 in selective induction medium containing 2% (w/w) galactose, 1% (w/w) raffinose, 0.7% (w/w) yeast nitrogen base without amino acids from Difco (Quilaban, Sintra, Portugal), and all the amino acids required for yeast growth ([…]) except leucine and tryptophan. Yeast cells were incubated at 30 °C under continuous orbital shaking (200 rpm) with 10 µM compounds or 0.1% DMSO only, for approximately 42 h (time required by the control yeast, co-transformed with the empty vectors and incubated with DMSO only, to achieve 0.4 OD600). Yeast growth was analyzed by counting the number of colony-forming units (CFU) after 2 days of incubation at 30 °C on Sabouraud Dextrose Agar from Liofilchem (Frilabo, Porto, Portugal).

HCT116 (HCT116 p53+/+) = test: SRB growth inhibition assay, colorectal carcinoma cells; assay type: cell-based; conditions: Homo sapiens, HCT-116
Experimental: A sulforhodamine B (SRB) assay was performed to evaluate the in vitro growth inhibitory activity of all synthesized hybrids, as well as intermediates in the human tumor cell lines of melanoma (A375-C5), breast adenocarcinoma (MCF-7), and colorectal carcinoma (HCT116), as well as on the non-tumor Human Pulmonary Alveolar Epithelial cell line (HPAEpiC). The concentration inducing 50% cell growth inhibition (GI50), was calculated. […] The overall results prompt us to further investigate the mechanism behind the cytotoxic activities of compounds 6, 7, and 13 in colorectal tumor cells. Moreover, in silico studies were performed, aiming to screen for drug-likeness.
A375-C5 (melanoma) and MCF-7 (breast adenocarcinoma) cell lines were obtained from the European Collection of Cell Culture, UK, and were grown in RPMI-1640 medium (Roswell Park Memorial Institute, Biochrom, Cambridge, UK) with 5% inactivated FBS (fetal bovine serum, Biochrom). HCT-116 (colon adenocarcinoma) cells were grown in DMEM medium (Dulbecco’s Modified Eagle’s, Biochrom) with 5% inactivated FBS. The non-tumor human pulmonary alveolar epithelial cells (HPAEpiC) were obtained from ScienCell Research Laboratories and grown in DMEM medium supplemented with 10% FBS and 1% non-essential amino acids (Sigma-Aldrich Co., Saint Louis, MO, USA). All cell lines were maintained in a humidified incubator (Hera Cell, Heraeus, Hanau, Germany) at 37 °C and with 5% CO2, and cell viability was regularly monitored using the exclusion trypan blue dye.
A total of 5.0 × 10^4 A375-C5, MCF-7, and HCT-116 cells, or 6.0 × 10^4 HPAEpiC cells were seeded in 96-well plates and incubated at 37 °C and 5% CO2 to allow for cell attachment. After 24 h, cells were treated with two-fold serial dilutions of test compounds (0–150 µM), or with DMSO as the compound solvent. In parallel, cells in a time-zero (T0) plate, without treatment, were fixed with 50% (m/v) trichloroacetic acid (TCA, Merck Millipore, Darmstadt, Germany), for 1 h at 4 °C, and then washed with distilled water and left to dry. Forty-eight hours after compound treatment, cells were fixed with 50% TCA and stained with SRB (Sigma-Aldrich Co., Ltd., Gillingham, UK) for 30 min at room temperature, followed by 5 rounds of washing with 1% (v/v) acetic acid (Merck Milli-pore, Darmstadt, Germany). SRB–protein complexes were then solubilized with […] Tris buffer (Sigma-Aldrich Co., Ltd., Gillingham, UK) for 30 min, and the absorbance was measured at 515 nm in a microplate reader (Biotek Synergy 2, BioTek Instruments, Inc., Winooski, VT, USA). A dose-response curve was obtained for each cell line, and the concentration that caused 50% cell growth inhibition (GI50) was calculated.

T1 sequence (Q00987 whole entry): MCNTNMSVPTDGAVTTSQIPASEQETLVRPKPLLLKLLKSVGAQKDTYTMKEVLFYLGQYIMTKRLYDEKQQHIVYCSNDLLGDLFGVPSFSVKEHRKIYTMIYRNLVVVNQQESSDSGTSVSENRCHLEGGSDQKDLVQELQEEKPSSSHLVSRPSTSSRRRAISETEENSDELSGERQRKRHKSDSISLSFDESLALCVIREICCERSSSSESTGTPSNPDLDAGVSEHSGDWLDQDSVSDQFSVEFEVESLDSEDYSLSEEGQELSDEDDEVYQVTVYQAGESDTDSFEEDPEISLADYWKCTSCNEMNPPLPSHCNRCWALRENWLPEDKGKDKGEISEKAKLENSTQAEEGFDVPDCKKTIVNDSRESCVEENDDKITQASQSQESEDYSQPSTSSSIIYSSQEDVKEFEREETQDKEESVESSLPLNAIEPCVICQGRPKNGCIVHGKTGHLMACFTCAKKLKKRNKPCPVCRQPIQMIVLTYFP

CCCc1c(OCCNC(=O)/C=C/c2cc(OC)c(OC)c(OC)c2)ccc(C(=O)/C=C/c2cc(OC)c(OC)c(OC)c2)c1O [Compound 7, (E)-N-(2-(3-hydroxy-2-propyl-4-((E)-3-(3,4,5-trimethoxyphenyl)acryloyl)phenoxy)ethyl)-3-(3,4,5-trimethoxyphenyl)acrylamide] was tested, and the “Apoptosis induction (Annexin V-positive cells)” value (HCT116 cells) was “induces apoptotic tumor cell death”, the “Effect on the p53–MDM2 interaction (reversal of the negative growth effect of MDM2 on p53)” value (p53–MDM2 interaction) was “none of the tested compounds significantly reversed the negative inhibitory growth effect of MDM2 on p53” and the GI50 (HCT116 (HCT116 p53+/+); SRB, 48 h, read-out: GI50 HCT116) was 3.26 ± 1.39 µM. The GI50 (HCT116 (HCT116 p53+/+); Table 2, 48 h, read-out: GI50 HCT116 p53+/+) was 3.26 ± 1.39 µM.
